Source: patent US20150352075A1, “Treatment of Alzheimer's and Cognitive Impairment With Andrographolides” (INNOBIOSCIENCE, LLC, priority 2013, published 2015)

Legend:
[1] = system: APPswe/PS-1 double transgenic mice; assay: Classical Morris Water Maze test; format: in vivo; conditions: 12 month-old APPswe/PS-1 mice, 2.0 mg/kg IP three times per week, four weeks, vs Tg control
[2] = system: APPswe/PS-1 double transgenic mice; assay: Immunoblot of synaptic proteins in hippocampus and cortex of treated mice; format: in vivo
[3] = system: APPswe/PS-1 double transgenic mice; assay: Thioflavine-S staining of amyloid plaques in brain of treated mice; format: in vivo
[4] = system: APPswe/PS-1 double transgenic mice; assay: Tau phosphorylation (PHF-1, AT8) by immunoblot and immunohistochemistry in treated mice; format: in vivo
[5] = system: Wnt/β-catenin pathway in cultured rat hippocampal neurons; assay: Wnt/β-catenin pathway activation in cultured hippocampal neurons (western blot, immunofluorescence); format: cell-based
Description: Primary culture of rat hippocampal neurons. Rat hippocampal cultures were prepared as previously described (Arrazola et al, 2009). On day 3 of culture, hippocampal cells were treated with […] 1-b-Darabinofuranosylcytosine (AraC) during 24 h to reduce the number of proliferating non-neuronal cells. […] PCR-ARRAY. RNA from hippocampal neurons was extracted using Trizol. Quantification and purity of RNA preparations were checked by absorbance using Nanodrop ND-2000. Only preparations with a 260/280 nm ratio ≧1.8, a 260/230 nm ratio ≧1.7 and no sign of RNA degradations, verified by agarose gel electrophoresis with Gel Red™ were used. Genomic DNA was degraded. Using RT2First-Strand cDNA Synthesis kit (SuperArray), 1 ng total RNA was reverse transcribed and then real-time PCR was performed by adding cDNA directly to PCR Master Mix, containing SYBR Green and ROX. The mixtures were then aliquoted into a 96-well PCR array plates, which profiles the expression of 84 Wnt target genes from rat. The PCR was run on ABI StepOnePlus, with 1 cycle of 10 min at 95° C. followed by 40 cycles of 15s at 95° C. and 1 min at 60° C. Cycle threshold (Ct) values were calculated for all the genes present on the array (Schmittgen & Livak, 2008). Treatment of neuronal cultures. Primary hippocampal cultures of neurons 14 DIV were washed twice in neurobasal medium and maintained for 1 hour. Next ANDRO (10 μM) and 6-BIO (10 μM) were added to different time periods.
Following a time-course treatment, neurons were washed with cold PBS and harvested in 600 μL of cold homogenization buffer (10 mM HEPES pH 7.9; 1.5 mM MgCl2; 10 mM KCl; 1 mM DTT). The cells were disrupted by 20 passed, back and forth, through a syringe of 1mL. Lysates were centrifuged for 6 minutes at 700 g at 4° C. and the supernatant was removed. The precipitate was washed in 100 μL of buffer (20 mM HEPES pH=7.9; 420 mM NaCl; 1.5 mM MgCl2; 0.2 mM EDTA; 1 mM DTT; 25% glicerol) and centrifuged again to generate nuclear fraction. Cytosolic fractions were generated from the supernatantat 100.000 g […] 4° C. Both buffers were supplemented with protease inhibitors and serine-phosphatase. Nuclear and cytosolic fractions were subsequently subjected to western blotting.
(§1) The samples were dissected on ice and immediately frozen in liquid nitrogen or processed has previously detailed (Inestrosa et al, 2011). Briefly, tissues were homogenized in RIPA buffer (10 mM Tris-Cl, pH 7.4, EDTA 5 mM, 1% NP-40, 1% sodium deoxycholate, and 1% SDS) supplemented with a protease inhibitor mixture (1 mM PMSF, 2 μg/mL aprotinin, 1 μg/mL pepstatin and 10 μg/mL benzamidine) and phosphatase inhibitors (25 mMNaF, 100 mM Na3VO4, 1 mM EDTA and 30 μM Na4P207) using a Potter homogenizator and then passed sequentially through different caliber syringes. Protein samples were centrifuged at 14000 rpm at 4° C. twice for 15 min. Protein concentration was determined using the BCA Protein Assay Kit (Pierce). Samples were resolved by […] 10% SDS-PAGE and transferred to a PVDF membrane. The reactions were followed by incubation with anti-mouse, anti-goat or anti-rabbit IgG peroxidase conjugated (Pierce, Rockford, Ill.) and developed using an ECL kit (Western Lightning Plus ECL, PerkinElmer).
Hippocampal neurons were seeded onto poly-L-lysine-coated cover slips in 24-well culture plates at a density of 5×10^4 cells per well, as described previously (Arrazola et al, 2009; Chacon et al, 2008). A mouse monoclonal anti-b-catenin was used. Cells were extensively washed with PBS and then incubated with Alexa 488-conjugated anti-mouse IgG for 1 h at room temperature. Cells were mounted in mounting medium and analyzed in a Carl-Zeiss Confocal Laser Microscope.

[6] = system: Wnt/β-catenin pathway in hippocampal slices; assay: Wnt pathway mechanism in hippocampal slices (sFRP, Dkk-1, Dvl-3 mobility shift, time course); format: cell-based, mice
Description: Slice preparation. […] Transverse slices (250-300 μm) from the dorsal hippocampus were cut under oxygen-saturated cold artificial cerebrospinal fluid using a Vibroslice microtome (VSL, World Precision Instruments, Inc WPI, Sarasota, Fla.). After obtained, slices were incubated in ACSF for at least than one hour at room temperature, in order to stabilize activity. In every moment during dissection, slicing and experimentation slices were oxygenated with 95% oxygen-5% carbon dioxide.
as §1, with “Briefly,” for “The samples were dissected on ice and immediately frozen in liquid nitrogen or processed has previously detailed (Inestrosa et al, 2011). Briefly,”, “Protein samples were centrifuged at 14000 rpm at 4° C. twice for 15 min.” left out

[7] = Side effects in treated animals; conditions: in vivo
[8] = young APPswe/PS-1 mice, vs controls
[9] = hippocampal neurons, ANDRO 10 μM
[10] = hippocampal neurons, different concentrations for 6 h

C=C1CC[C@@H]2C(C)(CO)C(O)CC[C@@]2(C)C1C/C=C1/C(=O)OCC1O (stereo in doubt) [ANDRO, 3-(2-(Decahydro-6-hydroxy-5-(hydroxymethyl)-5,8a-dimethyl-2-methylenenaphthyl)ethylidene)dihydro-4-hydroxyfuran-2(3H)-one]
escape latency [1]: significantly lower escape latency values
PSD-95 and GluA2 levels ([2]; mature Tg mice): increase of PSD-95 and GluA2 levels
total levels of pre-synaptic proteins SYP and VAMP ([2]; young APPswe/PS-1 mice): unaltered
levels of post-synaptic proteins (Shank, GluN2B, GluA2, PSD-95) ([2]; young APPswe/PS-1 mice, hippocampus and cortex): significantly recovers the post-synaptic proteins
plaque size distribution (cumulative frequency) ([3]; 7 month-old APPswe/PS-1 mice): shift in their distribution toward smaller plaque size
amyloid plaques stained with Th-S ([3]; 7 month-old APPswe/PS-1 mice, cortex and hippocampus, vs untreated): reduction of amyloid plaques stained with Th-S
amyloid deposit levels (amyloid burden area) ([3]; FIG. 3F mice (printed young; legend: old, 12 month-old), hippocampus or cortex): no change in amyloid deposit levels
most immature plaques (type 1) [3, 8]: increase significantly
type 2a and 2c amyloid plaques in total brain [3, 8]: no significant differences
type 2b amyloid plaques in brain [3, 8]: significantly decreased
number of AT8-positive neurons next to amyloid deposits ([4]; 6 month-old APPswe/PS-1, circular area surrounding plaques): clear decrease in the number of AT8-positive neurons next to amyloid deposits
total AT8-positive cells outside the circular area around the plaques ([4]; hippocampus): decrease in the number of these cells
PHF-1- and AT8-positive tau levels (immunoblot) ([4]; hippocampus of 6 month-old APPswe/PS-1 mice, vs untreated): reduction in PHF-1- and AT8-positive tau levels
β-catenin levels by immunofluorescence ([5]; 5 μM for 6 h, neurons at 14 DIV): increased β-catenin levels
time of maximum increase of the inhibited form of GSK-3β [5, 9]: 6 h
time of peak accumulation of cytoplasmic and nuclear β-catenin [5, 9]: 9 h
accumulation of β-catenin [5, 10]: accumulation of β-catenin in a concentration-dependent manner
active form of GSK-3β (phospho-Tyr-216) [5, 10]: decrease in the active form (phosphor-Tyr-216)
inhibited form of GSK-3β (phospho-Ser-9) [5, 10]: increase in the inhibited form of the enzyme (phospho-Ser-9)
speed of increase in GSK3β pSer-9 and decrease in pTyr-216 ([6]; compared to Wnt-3a treatment): faster
mobility shift (phosphorylation) of Dvl-3 ([6]; hippocampal slices, 1 h, western blot): does not induce a mobility shift of Dvl-3
time at which total levels of β-catenin increased ([6]; slices from 2 month-old wild-type mice, 5 μM ANDRO, Wnt3a conditioned medium or 10 μM 6-B10): 15 min
side effects in animals [7]: seems not to cause side effects in animals
